Source: patent publication EP3102180B1, “A TOPICAL COMPOSITION” (Unilever N.V., priority 2014, dated 2015)

What was measured:
Assay type in all cases: cell-based
[1] = test system: IL-17; test: IL-17 ELISA in PBMCs pretreated with active, induced with PMA/ionomycin; settings: PBMCs pretreated with 0.001% active for 24 hours, induction 24 hours with 25 ng PMA/ 1 µg lonomycin; control 732; lower = more anti-inflammatory
Method: (§1) The procedure used to measure the anti-inflammatory potential of the various samples was as follows: Blood was diluted with equal volume of HBSS or PBS(1:1). The PBMCs were isolated into fresh tube. These PBMC's were then plated in 96 well plate (10^6 cell/well). They were then pretreated with the active (for 24 hours). Induction was then carried out with antigen/mitogen for 24 hours. The cell-supernatant was then taken and frozen. The cytokine levels in these supernatants were detected by ELISA.

[2] = test system: TNF-alpha; test: TNF-alpha ELISA in PBMCs pretreated with active, induced with PMA/ionomycin; settings: 0.001% active, 25 ng PMA/ 1 µg lonomycin, control 5384, lower = more anti-inflammatory
Method: as §1
The experiments were conducted using a similar procedure as earlier except that TNF-alpha ELISA was measured as a marker. Table -2

[3] = test system: IL-17; test: Co-treatment with different actives, cytokine ELISA in PBMCs; settings: co-treatment with 0.001% active, 25 ng PMA/ 1 µg lonomycin; control 2244
[4] = test system: TNF-alpha; test: TNF-alpha ELISA in primary keratinocytes, LPS-induced inflammation; settings: primary keratinocytes pretreated 24 hours with 0.001% active, 25 µg LPS; control 283
Method: (§2) The procedure used to measure the anti-inflammatory potential of the various samples was as follows: The primary keratinocytes were seeded in a 24 well plate (80000 cell/well). On attaining full confluency, the cells were pretreated with the active for 24 hours. Inflammation was induced either through using LPS or through use of live and heat treated P. acnes for 24 hours. The cell-supernatant was then taken and frozen. The cytokine levels in these supernatants were detected by ELISA.

[5] = test system: IL-8; test: IL-8 ELISA in keratinocytes induced with LPS, heat killed or live P. acnes
Method: as §2
The experiments as shown in Table - 6 were studies using keratinocyte cell lines and the IL-8 concentration was measured. Table - 6
Examples K, 9 and 10: Experiments similar to J, 7 and 8 except that live p.acne was used

[6] = test system: IL-8; test: IL-8 ELISA in PBMCs exposed to P.acne (with or without antimicrobial treatment of the bacteria)
Method: Actives/ Compositions as shown in Table-8 were measured for effect on inflammatory marker IL-8 using the following procedure: PBMCs were isolated as discussed before for Example-1. They were then plated in a 96-well plate. In some wells, cells were pre-treated with 0.001% Andrographolide for 24 hours and some wells were not treated with anything. P.acne culture was grown on CY agar medium in aneorobic chamber and then culture was set to the .005 O.D. Bacterial culture was treated with antimicrobial active combination of thymol (0.05%) and terpineol (0.05%) for 30 seconds. After the contact time is over, sample was neutralized in D/E neutralizer. The bacterial pellet was collected by centrifugation. The pellet was re-suspended in cell culture medium and bacterial culture was added to the cells (PBMC's) treated with andrographolide and also bacterial culture was added to the wells where there was no treatment with andrographolide. Live P.acne (not treated with the antimicrobial actives) was added to the wells where there was no treatment with andrographolide and also added to the wells treated with andrographolide. The treated cells were incubated in 37° C incubator for 24 hours. After 24 hours the supernatant was removed and ELISA was done for IL-8 marker.
The same procedure was followed as explained in the previous section for this experiment. The antimicrobials which were used for this experiment were thymol, terpineol, Triclosan (TCN) and Trichlorocarban (TCC). The used concentrations of these antimicrobials and the concentration of the IL-8 marker after the treatment are summarized in the following Table 9. Table - 9

[7] = test system: TNF-alpha; test: TNF-alpha ELISA in PBMCs exposed to P.acne (with or without antimicrobial treatment of the bacteria); settings: Table 10: PBMCs; Andrographolide pre-treatment (0.001% per procedure); P.acne treated with 0.05% Thymol, 0.05% Terpineol or 0.2% Silver Oxide; P.acne alone 635.6
[8] = test system: bacterial cells; test: Antibacterial contact-time kill test (pour plate count after neutralisation); settings: 0.2% TCC or 0.2% thymol + 0.5% terpineol
Method: Efficacy of two compositions as shown in Table - 4 were measured as follows: The O.D of the bacterial cells were adjusted such that it corresponds to 1X10^8 cells of bacteria. 1ml of the bacterial culture was taken and added to 9 ml of the test solution (containing the antimicrobial active). The mixture was kept for the desired amount of time after which it was neutralized by adding 1 ml of mix to the 9 ml of D/E neutralizer. It was then serially diluted till 10^5. The number of bacteria was then enumerated by using the pour plate method.

[9] = Table 9: PBMCs, Andrographolide pre-treatment (0.001% per procedure), P.acne treated with 0.05% Thymol, 0.05% Terpineol, 0.2% TCC, 0.2% TCN or 0.2% Silver Oxide, P.acne alone 641.5

Which IL-17 concentration [1] does the source give for `CCC(C)(C)C(=O)O[C@H]1C[C@@H](C)C=C2C=C[C@H](C)[C@H](CC[C@@H]3C[C@@H](O)CC(=O)O3)[C@H]21` [Simvastatin, reference compound] here?
Its IL-17 concentration is 493 pg/mL.

What does the source list for `C=C1CC[C@@H]2[C@](C)(CO)[C@H](O)CC[C@@]2(C)[C@@H]1C/C=C1/C(=O)OC[C@H]1O` [Andrographolide, andrographolide]?
IL-17 concentration [1]: 143 pg/mL; TNF-alpha concentration [2]: 58 pg/mL; IL-17 concentration [3]: 1187 pg/mL; TNF-alpha concentration [4]: 156 pg/mL; IL-8 concentration ([5]; 0.01% active, inducer 50 µg LPS, control 649): 229 pg/mL; IL-8 concentration ([5]; 0.01% active, inducer heat killed P. acnes, control 2238): 1088 pg/mL; IL-8 concentration ([5]; 0.01% active, inducer live P. acnes, control 558): 337 pg/mL; IL-8 concentration ([5]; 0.1% active, inducer 50 µg LPS, control 649): 78 pg/mL; IL-8 concentration ([5]; 0.1% active, inducer heat killed P. acnes, control 2238): 230 pg/mL; IL-8 concentration ([5]; 0.1% active, inducer live P. acnes, control 558): 205 pg/mL; IL-8 concentration ([6]; Table 8: PBMCs pre-treated with 0.001% Andrographolide for 24 hours and/or P.acne treated with thymol (0.05%) and terpineol (0.05%) for 30 seconds, P. acnes alone 957): 400 pg/mL; IL-8 concentration [6, 9]: 276.48 pg/mL; TNF-alpha concentration [7]: 231.15 pg/mL

What does the source list for `O=C(Nc1ccc(Cl)cc1)Nc1ccc(Cl)c(Cl)c1` [TCC, Trichlorocarbanilide]?
Log CFU/ml ([8]; contact time 15 seconds, 1X10^8 cells of bacteria): 7.1 Log CFU/ml; Log CFU/ml ([8]; contact time 30 seconds): 7.1 Log CFU/ml; Log CFU/ml ([8]; contact time 1 minute): 7.1 Log CFU/ml; Log CFU/ml ([8]; contact time 5 minutes): 7.1 Log CFU/ml; IL-8 concentration [6, 9]: 626.48 pg/mL

How did the IL-8 concentration [6, 9] turn out when `Cc1ccc(C(C)C)c(O)c1` [Thymol, thymol] was run?
The IL-8 concentration was 546.38 pg/mL.

What about the TNF-alpha concentration [7] of the same compound?
Its TNF-alpha concentration is 546.94 pg/mL.

Which IL-8 concentration [6, 9] does the source give for `Oc1cc(Cl)ccc1Oc1ccc(Cl)cc1Cl` [TCN, Triclosan, reference compound] here?
Its IL-8 concentration is 613.15 pg/mL.

For `CC1=C(/C=C/C(C)=C/C=C/C(C)=C/C(=O)O)C(C)(C)CCC1` [Retinoic acid], which IL-17 concentration [3] is on record?
Its IL-17 concentration is 2762 pg/mL.

`CC1=C(/C=C/C(C)=C/C=C/C(C)=C/CO)C(C)(C)CCC1` [Retinol] was tested. Which IL-17 concentration [3] did it give?
The IL-17 concentration was 2006 pg/mL.

`[Ag+].[Ag+].[O-2]` [Silver Oxide, silver oxide, reference compound] was tested. Which IL-8 concentration [6, 9] did it give?
The IL-8 concentration was 599.8 pg/mL.

And the TNF-alpha concentration [7]?
Its TNF-alpha concentration is 494.3 pg/mL.
